The text below walks through data of patent US20030152536A1, “Cosmetic preparations containing waltheria indica extracts” (priority 2000, published 2003).

The experiment has as its system melanin index of forearm skin. In words: In vivo lightening of color on the forearm of 41 volunteers with Asiatic skin color (melanin index D56/D0). Also on record: species or system human. The settings on record: D0 melanin index before, D56 after treatment. How it is done: The effectiveness of the preparations according to the invention by comparison with known preparations was tested in vitro by inhibition of the synthesis of melanin in B 16 melanocytes. The concentration of the active principles (in % by weight) in the cell culture medium and the inhibition in %-rel. in relation to the blank value are shown. An in vivo test was also carried out by measuring the lightening of color on the extensor muscle side of the forearm of 41 volunteers with Asiatic skin color. The depigmenting activity D56/D0 is shown, D0 standing for the melanin index before the treatment and D56 for the index after the treatment.

As for `OC[C@H]1O[C@@H](Oc2ccc(O)cc2)[C@H](O)[C@@H](O)[C@@H]1O` [Arbutin], the D56/D0 came out at 54 (concentration 0.1) and 30 (concentration 0.3).
